Source: patent publication US4708966A, “Novel anti-inflammatory agents, pharmaceutical compositions and methods for reducing inflammation” (The Procter & Gamble Company, priority 1986, dated 1987)

What was measured:
[1] = system: carrageenan rat paw edema; experiment: Carrageenan Rat Paw Edema Test; assay type: in vivo, Male Sprague-Dawley rats
Experimental: Carrageenan Rat Paw Edema Test
Male Sprague-Dawley rats (Charles River Laboratories) are weighed and food fasted overnight. The animals are then divided into four to six groups of six animals each according to body weights (average about 145 g) so that each group has about the same average body weight (within 10 g).
The following morning animals are dosed with the test compound and then placed in individual cages. For oral dosing, the drug is suspended in 0.5% methyl cellulose with 2% Tween 80, and delivered via stomach tube in a 5 ml volume.
Paw volumes (0 time) are determined on both hind paws with a mercury displacement device equipped with a transducer and digitizer. One hour after dosing the test compound, the animals are placed in a plastic restrainer and 50 ul of a 1% (w/w) carrageenan solution in 0.9% saline is injected into the ventral surface of the left rear paw. Four hours after the carrageenan injection, the paw volumes are again determined.
The results are expressed as percent inhibition of the mean paw volume of the test group relative to the control group. Statistical differences are determined by one way analysis of variance. ID35 values are determined by regression analysis.

[2] = system: rheumatoid arthritis or osteoarthritis; experiment: capsules in a patient afflicted with rheumatoid arthritis or osteoarthritis; assay type: in vivo; conditions: capsule, 200 mg Compound 11, oral, once a day
Experimental: Pharmaceutical Compositions in Capsule Form
Capsules are prepared by conventional methods, comprised as follows: […]

[3] = gastric damage / gastrointestinal irritation; assay type: in vivo; conditions: levels significantly greater than the therapeutic dose, test animals
[4] = system: lipoxygenase ("LOX"); experiment: inhibition of lipoxygenase in arachidonic acid metabolism; assay type: biochemical
[5] = system: rheumatoid arthritis; experiment: tablets in a patient suffering from rheumatoid arthritis; assay type: in vivo; conditions: tablet, 200 mg Compound 11, oral, two times daily
Experimental: (§1) Pharmaceutical Compositions in Tablet Form
(§2) Tablets are prepared by conventional methods, such as mixing and direct compaction, formulated as follows: […]

[6] = system: osteoarthritis; experiment: tablets in a patient suffering from osteoarthritis; assay type: in vivo; conditions: tablet, 200 mg Compound 11, twice daily
Experimental: as §1, §2

[7] = system: adjuvant arthritis (modified Freund's adjuvant); experiment: Adjuvant Arthritis - Immunomodulatory; assay type: in vivo, Male Sprague-Dawley rats; conditions: 15 mg/kg, 2 x/day, day -1 through day 7
Experimental: Adjuvant Arthritis Methodology
Male Sprague-Dawley rats weighing 167-170 gm are allowed to acclimate to the laboratory for at least 3 days. Ten rats are then assigned to the healthy control group and the remaining rats are assigned to the arthritic group. On day 0, the rats in the arthritic group are injected subcutaneously in the middle of their tail with a modified Freund's adjuvant (MFA) at a dosage of 0.05 ml/100 gm body weight. The MFA is made by grinding Mycobacterium butyricum (Mb) and then mixing with mineral oil at a concentration of 10 mg Mb/ml of mineral oil. This is mixed in an Omni mixer for 45 minutes.
Paw volumes and body weights are determined on days -1, 6, 13, 19, 26, and 29. On day 19, paw volume changes from day -1 are determined for the arthritic group. The rats with paw volume changes≥0.50 ml but ≤2.50 ml are randomized by paw volume changes into the treatment groups on day 20. On days 20 through 28, the rats are orally dosed twice a day (once a day on weekends). On day 29, two representative rats from each treatment group are photographed, paw volumes and body weights are determined, and then the rats are sacrificed with CO2 and x-rays are taken.
The radiographs are used to grade bone resorption. Bone resorption is graded in 20 areas of the fore and hind paws. The areas for grading on the hind paw are: distal femur end, proximal tibia and tibula, distal end of the tibia and the small bone under the tibia, calcaneous, tarsus, and metatarsus. The areas on the fore paws are: radius, ulna, carpus, and metacarpus. Each area is given a grade of 0 (no resorption) or 1 (resorption) for possible grade of 20 of each animal.
The same procedures as for the therapeutic, except the rats are randomly assigned to the treatment groups including the healthy control group by body weights on day -2. Paw volumes and body weights are determined on days -1, 6, 13, 20, and 27. The rats are treated from day -1 through day 7. The rats are sacrificed on day 28 and x-rayed. The radiographs are graded as above using a severity scale from 0 (no resorption) to 3 (severe resorption).

SMILES: C#CCCCC(=O)c1cc(C(C)(C)C)c(O)c(C(C)(C)C)c1 [Compound 11, 4-(5'-hexynoyl)-2,6-di-t-butylphenol]
- ED35 ([1]; 4 h, oral, by regression analysis, read-out: ID35): 4.8 mg/kg
- inhibition in vivo at 100 mg/kg ([1]; po, 100 mg/kg P.O., paw volume 4 h after carrageenan, vs control group, read-out: Percent Inhibiton at 100 mg/kg dose P.O): 67.6%
- reduction of symptomology [2]: substantially reduces the symptomology
- gastric damage after oral dosing [3]: very low or no gastric damage
- inhibition of lipoxygenase (LOX) [4]: dual inhibitor
- reduction of inflammation [5]: significantly reduces the inflammation
- benefit [6]: significant benefit
- Body Weights % Increase [7]: 30%
- Paw Volume % Decrease [7]: 48%
- Bone Resorption % Inhibition ([7]; severity scale 0-3): 57%
